From US20140107113A1, “PHARMACEUTICAL COMPOSITION COMPRISING A TRPA1 ANTAGONIST AND A BETA-2 AGONIST” (GLENMARK PHARMACEUTICALS SA, priority 2011, published 2014) come the findings set out here.

SMILES strings stand for the structures.

The experiment deals with T1, human TRPA1 receptor (Homo sapiens, UniProt O75762).
T1 construct: expressed in transfected cells; host or cells: CHO cells
T1 sequence (O75762 whole entry): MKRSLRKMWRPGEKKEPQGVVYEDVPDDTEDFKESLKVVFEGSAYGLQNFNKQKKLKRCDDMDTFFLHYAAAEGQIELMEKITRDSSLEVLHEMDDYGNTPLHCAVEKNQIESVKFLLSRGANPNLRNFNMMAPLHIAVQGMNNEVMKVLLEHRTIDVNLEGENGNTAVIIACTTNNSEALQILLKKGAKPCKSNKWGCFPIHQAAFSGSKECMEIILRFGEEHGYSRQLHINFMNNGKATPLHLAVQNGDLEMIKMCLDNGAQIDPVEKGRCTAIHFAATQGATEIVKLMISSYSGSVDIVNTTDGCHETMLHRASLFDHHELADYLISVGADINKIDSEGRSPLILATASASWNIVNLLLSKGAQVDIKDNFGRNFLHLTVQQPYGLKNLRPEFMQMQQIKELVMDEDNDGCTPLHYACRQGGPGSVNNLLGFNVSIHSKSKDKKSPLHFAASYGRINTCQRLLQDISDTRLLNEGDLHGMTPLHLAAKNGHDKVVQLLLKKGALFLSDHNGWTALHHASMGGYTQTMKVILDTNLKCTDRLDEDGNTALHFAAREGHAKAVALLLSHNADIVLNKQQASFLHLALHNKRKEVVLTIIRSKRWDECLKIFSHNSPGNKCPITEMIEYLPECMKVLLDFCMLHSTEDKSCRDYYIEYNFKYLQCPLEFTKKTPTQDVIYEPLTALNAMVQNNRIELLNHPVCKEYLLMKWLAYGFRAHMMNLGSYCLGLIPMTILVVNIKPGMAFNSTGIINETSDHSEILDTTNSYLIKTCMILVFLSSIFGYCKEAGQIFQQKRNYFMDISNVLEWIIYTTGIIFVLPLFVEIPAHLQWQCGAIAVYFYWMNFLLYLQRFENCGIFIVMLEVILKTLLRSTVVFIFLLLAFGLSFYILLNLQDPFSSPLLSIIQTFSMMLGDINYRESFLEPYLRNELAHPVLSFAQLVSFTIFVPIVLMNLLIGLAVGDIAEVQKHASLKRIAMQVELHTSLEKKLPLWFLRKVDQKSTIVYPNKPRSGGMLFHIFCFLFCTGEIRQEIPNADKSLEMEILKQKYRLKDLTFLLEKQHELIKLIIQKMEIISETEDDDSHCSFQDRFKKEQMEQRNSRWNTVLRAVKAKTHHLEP
The experiment in a line: Inhibition of AITC induced cellular uptake of radioactive calcium in human TRPA1 expressing CHO cells. The experiment is classed as cell-based. Particulars: read-out: hTRPA1 IC50 values. The protocol: The human IC50 values were measured by the following method:
The inhibition of TRPA1 receptor activation is measured as inhibition of allylisothiocyanate (AITC) induced cellular uptake of radioactive calcium.
Test compound solution is prepared in a suitable solvent.
Human TRPA1 expressing CHO cells are grown in suitable medium. Cells are treated with test compounds followed by addition of AITC.
Cells are washed, lysed and the radioactivity in the lysate is measured in Packard Top count after addition of liquid scintillant.
The concentration response curves for compounds are plotted as a % of maximal response obtained in the absence of test antagonist, and the IC50 values are calculated from such concentration response curve by nonlinear regression analysis using GraphPad PRISM software.
The term IC50 denotes the concentration that gives 50% inhibition. As for `Cn1c(=O)c2c(CC(=O)Nc3nc(-c4ccc(F)c(C(F)(F)F)c4F)cs3)csc2n(C)c1=O` [Compound 52], the IC50 was 2.49 nM. For `Cn1c(=O)c2c(CC(=O)Nc3nc(-c4cc(F)c(OCC(F)(F)F)c(F)c4)cs3)coc2n(C)c1=O` [Compound 56] the value was 3.38 nM; for `Cc1oc2c(c1CC(=O)Nc1nc(-c3ccc(C(F)(F)F)c(F)c3)cs1)c(=O)n(C)c(=O)n2C` [Compound 65], 6.65 nM. For `Cn1c(=O)c2c(ccn2CC(=O)Nc2nc(-c3cc(Cl)c(OCCC(F)(F)F)c(Cl)c3)cs2)n(C)c1=O` [Compound 35] the value was 18 nM; for `Cn1c(=O)c2c(ccn2CC(=O)Nc2nc(-c3cc(F)c(OCC(F)(F)F)c(F)c3)cs2)n(C)c1=O` [Compound 37], 12.3 nM. For `Cn1c(=O)c2c(CC(=O)Nc3nc(-c4ccc(C(F)(F)F)c(F)c4)cs3)csc2n(C)c1=O` [Compound 51] the value was 4.84 nM. In the case of `Cn1c(=O)c2c(cnn2CC(=O)Nc2nc(-c3cc(Cl)c(OCC(C)(C)C)c(Cl)c3)cs2)n(C)c1=O` [Compound 44], the IC50 came out at 8.36 nM. Then `CC(C)Cc1ccc(-c2csc(NC(=O)Cc3cccc4c3c(=O)n(C)c(=O)n4C)n2)cc1` [Compound 23], with 43.9 nM.

In the case of `Cn1c(=O)c2c(ncn2CC(=O)Nc2nc(-c3ccc(Br)cc3)cs2)n(C)c1=O` [Compound 91], the IC50 came out at 451 nM.

Consider `Cc1oc2c(c1CC(=O)N=c1scc(-c3ccc(OC(F)(F)F)c(Cl)c3)n1COC(=O)CN)c(=O)n(C)c(=O)n2C` [Compound 98], for which the IC50 was found to be 54.3 nM. Consider `Cn1c(=O)c2c(CC(=O)Nc3ccn(-c4cccc(C(F)(F)F)c4)n3)cccc2n(C)c1=O` [Compound 16], for which the IC50 turned out to be 58.9 nM. With `Cn1c(=O)c2c(CC(=O)Nc3nc(-c4ccc(OC(F)(F)F)c(F)c4)cs3)nccc2n(C)c1=O` [Compound 88], the IC50 amounted to 11.4 nM.

For the compound `Cc1oc2c(c1CC(=O)Nc1nc(-c3ccc(OC(F)(F)F)c(Cl)c3)cs1)c(=O)n(C)c(=O)n2C` [Compound 73], the IC50 amounted to 8.54 nM. For `Cn1c(=O)c2c(CC(=O)Nc3nc(-c4ccc(C(F)(F)F)c(F)c4F)cs3)nsc2n(C)c1=O` [Compound 84] the value was 5.35 nM; for `COCCCOc1cccc(C2NC(=S)NC3=C2C(=O)c2ccccc23)c1` (centres unmarked) [Compound 90], 5.61 nM; for `Cc1oc2c(c1CC(=O)/N=c1\scc(-c3ccc(OC(F)(F)F)c(Cl)c3)n1COC(=O)[C@@H](N)C(C)C)c(=O)n(C)c(=O)n2C` [Compound 95], 88.5 nM. With `Cn1c(=O)c2c(CC(=O)Nc3nc(-c4ccc(F)c(C(F)(F)F)c4F)cs3)onc2n(C)c1=O` [Compound 92], the IC50 was found to be 17.1 nM.
